{"source": "patent US11053204B2", "about": "“Pyrimidinyloxy benzene derivatives as herbicides” (FMC Corporation, priority 2015, dated 2021)", "format_in_all_cases": "in vivo", "key": {"[1]": {"system": "galium (catchweed bedstraw, Galium aparine)", "assay": "Test C preemergence, plant response rating"}, "[2]": {"system": "johnsongrass (Sorghum halepense)", "assay": "Test C preemergence, plant response rating"}, "[3]": {"system": "barnyardgrass (Echinochloa crus-galli)", "assay": "Test C preemergence, plant response rating", "conditions": "Preemergence"}, "[4]": {"system": "pigweed, palmer (palmer pigweed, Amaranthus palmeri)", "assay": "Test C preemergence, plant response rating"}, "kochia (Kochia scoparia)": {"system": "kochia (Kochia scoparia)", "assay": "Test C preemergence, plant response rating"}, "[5]": {"system": "nightshade (eastern black nightshade, Solanum ptycanthum)", "assay": "Test C preemergence, plant response rating"}, "[6]": {"system": "windgrass (Apera spica-venti)", "assay": "Test C preemergence, plant response rating"}, "[7]": {"system": "Canada thistle (Cirsium arvense)", "assay": "Test C postemergence, plant response rating", "conditions": "for Canada Thistle plant response rating: scale 0 to 100 (0 no effect, 100 complete control)", "summary_of_the_method": "(§1)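 After sowing in loam–sand blend or silt loam, pots were sprayed preemergence; separately grown 1- to 4-leaf plants were sprayed postemergence. Following 13 to 15 d under greenhouse conditions, injury was rated visually on a 0 to 100 scale.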"}, "[8]": {"system": "buckwheat, wild (wild buckwheat, Polygonum convolvulus)", "assay": "Test C postemergence, plant response rating", "conditions": "for Buckwheat, Wild plant response rating: scale 0 to 100 (0 no effect, 100 complete control)", "summary_of_the_method": "as §1"}, "[9]": {"system": "field poppy (Papaver rhoeas)", "assay": "Test C postemergence, plant response rating", "conditions": "for Field Poppy plant response rating: scale 0 to 100 (0 no effect, 100 complete control)", "summary_of_the_method": "as §1"}, "[10]": {"system": "field violet (Viola arvensis)", "assay": "Test C postemergence, plant response rating", "conditions": "for Field Violet plant response rating: scale 0 to 100 (0 no effect, 100 complete control)", "summary_of_the_method": "as §1"}, "[11]": {"system": "geranium, cutleaf (cutleaf geranium, Geranium dissectum)", "assay": "Test C postemergence, plant response rating", "conditions": "for Geranium, Cutleaf plant response rating: scale 0 to 100 (0 no effect, 100 complete control)", "summary_of_the_method": "as §1"}, "[12]": {"system": "johnsongrass (Sorghum halepense)", "assay": "Test C postemergence, plant response rating", "conditions": "for Johnsongrass plant response rating: scale 0 to 100 (0 no effect, 100 complete control)", "summary_of_the_method": "as §1"}, "[13]": {"system": "nightshade (eastern black nightshade, Solanum ptycanthum)", "assay": "Test C postemergence, plant response rating", "conditions": "for Nightshade plant response rating: scale 0 to 100 (0 no effect, 100 complete control)", "summary_of_the_method": "as §1"}, "[14]": {"system": "pigweed, palmer (palmer pigweed, Amaranthus palmeri)", "assay": "Test C postemergence, plant response rating", "conditions": "for Pigweed, Palmer plant response rating: scale 0 to 100 (0 no effect, 100 complete control)", "summary_of_the_method": "as §1"}, "[15]": {"system": "speedwell (bird's-eye speedwell, Veronica persica)", "assay": "Test C postemergence, plant response rating", "conditions": "for Speedwell plant response rating: scale 0 to 100 (0 no effect, 100 complete control)", "summary_of_the_method": "as §1"}, "[16]": {"system": "surinam grass (Brachiaria decumbens)", "assay": "Test C postemergence, plant response rating", "summary_of_the_method": "as §1"}, "[17]": {"system": "wild mustard (Sinapis arvensis)", "assay": "Test C postemergence, plant response rating", "conditions": "for Mustard, Wild plant response rating: scale 0 to 100 (0 no effect, 100 complete control)", "summary_of_the_method": "as §1"}, "[18]": {"system": "wild poinsettia (Euphorbia heterophylla)", "assay": "Test C postemergence, plant response rating", "conditions": "for Poinsettia, Wild plant response rating: scale 0 to 100 (0 no effect, 100 complete control)", "summary_of_the_method": "as §1"}, "[19]": {"system": "windgrass (Apera spica-venti)", "assay": "Test C postemergence, plant response rating", "summary_of_the_method": "as §1"}, "[20]": {"conditions": "125 g ai/ha, scale 0 to 100 (0 no effect, 100 complete control)"}}}
{"smiles": "FC(F)(F)CCCCc1c(Br)cccc1Oc1ncc(Cl)cn1", "note": "[Compound 138]", "values": [{"measurement": "Plant response rating, Galium", "setting": "[1]; 31 g ai/ha, scale 0 to 100", "value": 0}, {"measurement": "Plant response rating, Galium", "setting": "[1]; 62 g ai/ha, scale 0 to 100", "value": 5}, {"measurement": "Plant response rating, Galium", "setting": "[1]; 125 g ai/ha, scale of 0 to 100", "value": 5}, {"measurement": "Plant response rating, Johnsongrass", "setting": "[2]; 31 g ai/ha, scale 0 to 100", "value": 0}, {"measurement": "Plant response rating, Johnsongrass", "setting": "[2]; 62 g ai/ha, scale 0 to 100", "value": 50}, {"measurement": "Plant response rating, Johnsongrass", "setting": "[2]; 125 g ai/ha, scale of 0 to 100", "value": 60}, {"measurement": "Plant response rating, Barnyardgrass", "setting": "[3]; 125 g ai/ha, scale of 0 to 100", "value": 95}, {"measurement": "Plant response rating, Barnyardgrass", "setting": "[3]; 16 g ai/ha, scale 0 to 100", "value": 20}, {"measurement": "Plant response rating, Barnyardgrass", "setting": "[3]; 31 g ai/ha, scale 0 to 100", "value": 40}, {"measurement": "Plant response rating, Barnyardgrass", "setting": "[3]; 62 g ai/ha, scale 0 to 100", "value": 80}, {"measurement": "Plant response rating, Pigweed, Palmer", "setting": "[4]; 31 g ai/ha, scale 0 to 100", "value": 60}, {"measurement": "Plant response rating, Pigweed, Palmer", "setting": "[4]; 62 g ai/ha, scale 0 to 100", "value": 100}, {"measurement": "Plant response rating, Pigweed, Palmer", "setting": "[4]; 125 g ai/ha, scale of 0 to 100", "value": 100}, {"measurement": "Plant response rating, Kochia", "setting": "kochia (Kochia scoparia); 31 g ai/ha, scale 0 to 100", "value": 75}, {"measurement": "Plant response rating, Kochia", "setting": "kochia (Kochia scoparia); 62 g ai/ha, scale 0 to 100", "value": 80}, {"measurement": "Plant response rating, Kochia", "setting": "kochia (Kochia scoparia); 125 g ai/ha, scale of 0 to 100", "value": 80}, {"measurement": "Plant response rating, Nightshade", "setting": "[5]; 31 g ai/ha, scale 0 to 100", "value": 50}, {"measurement": "Plant response rating, Nightshade", "setting": "[5]; 62 g ai/ha, scale 0 to 100", "value": 80}, {"measurement": "Plant response rating, Nightshade", "setting": "[5]; 125 g ai/ha, scale of 0 to 100", "value": 80}, {"measurement": "Plant response rating, Windgrass", "setting": "[6]; 31 g ai/ha, scale 0 to 100", "value": 100}, {"measurement": "Plant response rating, Windgrass", "setting": "[6]; 62 g ai/ha, scale 0 to 100", "value": 100}, {"measurement": "Plant response rating, Windgrass", "setting": "[6]; 125 g ai/ha, scale of 0 to 100", "value": 100}, {"measurement": "Plant response rating, Canada Thistle", "setting": "[7]; 16 g ai/ha, scale of 0 to 100", "value": 80}, {"measurement": "Plant response rating, Canada Thistle", "setting": "[7]; 31 g ai/ha, scale 0 to 100", "value": 80}, {"measurement": "Canada Thistle plant response rating", "setting": "[7]; 62 g ai/ha", "value": 90}, {"measurement": "Canada Thistle plant response rating", "setting": "[7]; 125 g ai/ha", "value": 95}, {"measurement": "Plant response rating, Buckwheat, Wild", "setting": "[8]; 16 g ai/ha, scale of 0 to 100", "value": 70}, {"measurement": "Plant response rating, Buckwheat, Wild", "setting": "[8]; 31 g ai/ha, scale 0 to 100", "value": 80}, {"measurement": "Buckwheat, Wild plant response rating", "setting": "[8]; 62 g ai/ha", "value": 100}, {"measurement": "Buckwheat, Wild plant response rating", "setting": "[8]; 125 g ai/ha", "value": 100}, {"measurement": "Plant response rating, Field Poppy", "setting": "[9]; 16 g ai/ha, scale of 0 to 100", "value": 100}, {"measurement": "Plant response rating, Field Poppy", "setting": "[9]; 31 g ai/ha, scale 0 to 100", "value": 100}, {"measurement": "Field Poppy plant response rating", "setting": "[9]; 62 g ai/ha", "value": 100}, {"measurement": "Field Poppy plant response rating", "setting": "[9]; 125 g ai/ha", "value": 100}, {"measurement": "Plant response rating, Field Violet", "setting": "[10]; 16 g ai/ha, scale of 0 to 100", "value": 90}, {"measurement": "Plant response rating, Field Violet", "setting": "[10]; 31 g ai/ha, scale 0 to 100", "value": 95}, {"measurement": "Field Violet plant response rating", "setting": "[10]; 62 g ai/ha", "value": 100}, {"measurement": "Field Violet plant response rating", "setting": "[10]; 125 g ai/ha", "value": 100}, {"measurement": "Plant response rating, Geranium, Cutleaf", "setting": "[11]; 16 g ai/ha, scale of 0 to 100", "value": 30}, {"measurement": "Plant response rating, Geranium, Cutleaf", "setting": "[11]; 31 g ai/ha, scale 0 to 100", "value": 35}, {"measurement": "Geranium, Cutleaf plant response rating", "setting": "[11]; 62 g ai/ha", "value": 55}, {"measurement": "Geranium, Cutleaf plant response rating", "setting": "[11]; 125 g ai/ha", "value": 60}, {"measurement": "Plant response rating, Johnsongrass", "setting": "[12]; 16 g ai/ha, scale of 0 to 100", "value": 10}, {"measurement": "Plant response rating, Johnsongrass", "setting": "[12]; 31 g ai/ha, scale 0 to 100", "value": 25}, {"measurement": "Johnsongrass plant response rating", "setting": "[12]; 62 g ai/ha", "value": 80}, {"measurement": "Johnsongrass plant response rating", "setting": "[12]; 125 g ai/ha", "value": 90}, {"measurement": "Plant response rating, Nightshade", "setting": "[13]; 16 g ai/ha, scale of 0 to 100", "value": 75}, {"measurement": "Plant response rating, Nightshade", "setting": "[13]; 31 g ai/ha, scale 0 to 100", "value": 80}, {"measurement": "Nightshade plant response rating", "setting": "[13]; 62 g ai/ha", "value": 100}, {"measurement": "Nightshade plant response rating", "setting": "[13]; 125 g ai/ha", "value": 98}, {"measurement": "Plant response rating, Pigweed, Palmer", "setting": "[14]; 16 g ai/ha, scale of 0 to 100", "value": 75}, {"measurement": "Plant response rating, Pigweed, Palmer", "setting": "[14]; 31 g ai/ha, scale 0 to 100", "value": 80}, {"measurement": "Pigweed, Palmer plant response rating", "setting": "[14]; 62 g ai/ha", "value": 90}, {"measurement": "Pigweed, Palmer plant response rating", "setting": "[14]; 125 g ai/ha", "value": 98}, {"measurement": "Plant response rating, Speedwell", "setting": "[15]; 16 g ai/ha, scale of 0 to 100", "value": 95}, {"measurement": "Plant response rating, Speedwell", "setting": "[15]; 31 g ai/ha, scale 0 to 100", "value": 100}, {"measurement": "Speedwell plant response rating", "setting": "[15]; 62 g ai/ha", "value": 100}, {"measurement": "Speedwell plant response rating", "setting": "[15]; 125 g ai/ha", "value": 100}, {"measurement": "Plant response rating, Surinam Grass", "setting": "[16]; 16 g ai/ha, scale of 0 to 100", "value": 20}, {"measurement": "Plant response rating, Surinam Grass", "setting": "[16]; 31 g ai/ha, scale 0 to 100", "value": 20}, {"measurement": "Surinam Grass plant response rating", "setting": "[16]; [20]", "value": 35}, {"measurement": "Plant response rating, Mustard, Wild", "setting": "[17]; 16 g ai/ha, scale of 0 to 100", "value": 100}, {"measurement": "Plant response rating, Mustard, Wild", "setting": "[17]; 31 g ai/ha, scale 0 to 100", "value": 100}, {"measurement": "Mustard, Wild plant response rating", "setting": "[17]; 62 g ai/ha", "value": 100}, {"measurement": "Mustard, Wild plant response rating", "setting": "[17]; 125 g ai/ha", "value": 100}, {"measurement": "Plant response rating, Poinsettia, Wild", "setting": "[18]; 16 g ai/ha, scale of 0 to 100", "value": 30}, {"measurement": "Plant response rating, Poinsettia, Wild", "setting": "[18]; 31 g ai/ha, scale 0 to 100", "value": 60}, {"measurement": "Poinsettia, Wild plant response rating", "setting": "[18]; 62 g ai/ha", "value": 75}, {"measurement": "Poinsettia, Wild plant response rating", "setting": "[18]; 125 g ai/ha", "value": 90}, {"measurement": "Plant response rating, Windgrass", "setting": "[19]; 16 g ai/ha, scale of 0 to 100", "value": 0}, {"measurement": "Plant response rating, Windgrass", "setting": "[19]; 31 g ai/ha, scale 0 to 100", "value": 15}, {"measurement": "Windgrass plant response rating", "setting": "[19]; [20]", "value": 50}]}
